Test results: ChEMBL document CHEMBL1153121, “2-Arylbenzoxazoles as CETP inhibitors: Substitution of the benzoxazole moiety” (Bioorg Med Chem Lett, 2010)

The compounds below were run against Cholesteryl ester transfer protein (Homo sapiens) (UniProt P11597) (assay: inhibition of human CETP assessed as cholesteryl ester transfer by fluorescence transfer assay relative to control). Details: concentration not given here.
Design: concentration or dose not given beside the values

Chain of Cholesteryl ester transfer protein (Homo sapiens) (P11597 whole entry, looked up): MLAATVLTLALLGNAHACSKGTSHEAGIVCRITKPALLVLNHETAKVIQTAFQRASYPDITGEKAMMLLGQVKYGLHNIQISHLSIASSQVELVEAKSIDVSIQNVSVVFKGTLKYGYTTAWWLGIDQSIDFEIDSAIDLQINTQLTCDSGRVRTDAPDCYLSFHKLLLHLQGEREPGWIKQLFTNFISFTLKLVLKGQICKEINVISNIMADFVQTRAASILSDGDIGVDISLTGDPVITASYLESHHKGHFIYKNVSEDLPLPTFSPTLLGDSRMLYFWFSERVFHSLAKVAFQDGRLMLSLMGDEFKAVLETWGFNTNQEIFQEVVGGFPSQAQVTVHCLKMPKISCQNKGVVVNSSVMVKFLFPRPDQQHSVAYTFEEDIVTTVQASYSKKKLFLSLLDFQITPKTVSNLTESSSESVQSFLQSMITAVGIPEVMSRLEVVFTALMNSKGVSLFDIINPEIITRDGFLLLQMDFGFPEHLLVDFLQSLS

| SMILES | inhibition [%] |
| --- | --- |
| Cc1ccc2nc(-c3ccc(NC(=O)COc4ccccc4C)cc3)oc2c1 | 34 |
| Cc1ccc2oc(-c3ccc(NC(=O)COc4ccccc4C)cc3)nc2c1 | 89 |
| Cc1ccccc1OCC(=O)Nc1ccc(-c2nc3ccc(F)cc3o2)cc1 | 50 |
| Cc1ccccc1OCC(=O)Nc1ccc(-c2nc3cccc(F)c3o2)cc1 | 36 |
| Cc1ccccc1OCC(=O)Nc1ccc(-c2nc3c([N+](=O)[O-])cccc3o2)cc1 | 42 |
| Cc1ccccc1OCC(=O)Nc1ccc(-c2nc3ccc([N+](=O)[O-])cc3o2)cc1 | 71 |
| Cc1ccccc1OCC(=O)Nc1ccc(-c2nc3cccc(Cl)c3o2)cc1 | 71 |
| Cc1ccccc1OCC(=O)Nc1ccc(-c2nc3cc([N+](=O)[O-])ccc3o2)cc1 | 79 |
